Earlier results in patent publication US6670392B2, “Compositions and methods for the prevention and treatment of human prostate cancer” (Bioadvantex Pharma Inc., priority 2001, dated 2003).

Settings: synthetic dl-α-tocopherol as standard; cited from earlier work

Cc1c(C)c2c(c(C)c1O)CC[C@@](C)(CCC[C@H](C)CCC[C@H](C)CCCC(C)C)O2 [d-α-tocopherol]
bioactivity relative to synthetic dl-α-tocopherol: 1.49 times
